Our source for the IC50 values is patent US20220073536A1 (Rigel Pharmaceuticals, Inc., priority 2003, published 2022).

Structures can show the parent of a compound that is named as a salt. Where two headings read alike, the source gives them in different places.

This assay concerns cultured human mast cells (CHMC). The assay can be described thus: CHMC low cell density IgE activation: tryptase assay. To be noted: low cell density CHMC, IgE activation, tryptase. The format is cell-based. The essentials: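 Tryptase release was read from supernatant with a fluorogenic substrate (30 min, room temperature) after anti-IgE challenge of cultured human mast cells (1000–1500 cells/well, low density) for 30 minutes at 37° C.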

[1] abbreviates: Homo sapiens, Mast cell, 3 pt, read-out: LD Tryptase, CHMC, IgE, 3 pt.
Where [2] appears, read: Homo sapiens, Mast cell, 8 pt, read-out: LD Tryptase, CHMC, IgE, 8 pt.
Setting [3] is: 3 pt, read-out: LD Tryptase, CHMC, IgE, 3 pt.
[4] abbreviates: 8 pt, read-out: LD Tryptase, CHMC, IgE, 8 pt.

Turning to `CCOC(=O)N1CCC(Nc2nc(Nc3ccc(N4CCN(C)CC4)c(C(F)(F)F)c3)ncc2F)CC1` [Compound 1229], the IC50 under setting [1] was < 10 µM. The same measure, in the same setting: the result for `CCN1CCN(c2ccc(Nc3ncc(F)c(NC4CCC4)n3)cn2)CC1` [Compound 1230] reads < 10 µM. As to `CCN1CCN(c2ccc(Nc3ncc(F)c(NC4CCCC4)n3)cn2)CC1` [Compound 1231], the IC50 under setting [1] was < 10 µM. On the same count and under the same terms, with `CCN1CCN(c2ccc(Nc3ncc(F)c(NC4CCCCC4)n3)cn2)CC1` [Compound 1232] the figure was < 10 µM; with `CN1CCN(c2ccc(Nc3ncc(F)c(NC(C)(C)C)n3)cc2C(F)(F)F)CC1` [Compound 1233], < 10 µM. `CCN1CCN(c2ccc(Nc3ncc(F)c(NC(C)C)n3)cn2)CC1` [Compound 1234]: under setting [1], the IC50 is < 10 µM. For the compound `CN1CCN(c2ccc(Nc3ncc(F)c(NC4CCC4)n3)cc2CO)CC1` [Compound 1235], the IC50 under setting [2] was > 10 µM.

As to `CCN1CCN(c2ccc(Nc3ncc(F)c(NC(C)(C)C)n3)cn2)CC1` [Compound 1236], the IC50 under setting [1] is > 10 µM. For the compound `CCN1CCN(c2ccc(Nc3ncc(F)c(NC4CC(C)(C)N(C)C(C)(C)C4)n3)cn2)CC1` [Compound 1237], under setting [1], the IC50 was > 10 µM. On to `CCOC(=O)N1CCC(Nc2nc(Nc3ccc(N4CCN(CC)CC4)nc3)ncc2F)CC1` [Compound 1238], for which the IC50 under setting [1] was > 10 µM. The same measure, in the same setting: with `Cc1cc(Nc2ncc(F)c(NC3CCC3)n2)cnc1N1CCN(C)CC1` [Compound 1239] the figure was > 10 µM.

As to `Cc1cc(Nc2ncc(F)c(NC3CCCC3)n2)cnc1N1CCN(C)CC1` [Compound 1240, N4-Cyclopentyl-5-fluoro-N2-[2-(4-methylpiperazino)-3-methylpyrid-5-yl]-2,4-pyrimidinediamine], the IC50 under setting [1] was < 10 µM. Still for that read-out and setting: the result for `Cc1cc(Nc2ncc(F)c(NC3CCCCC3)n2)cnc1N1CCN(C)CC1` [Compound 1241] reads < 10 µM. Consider `Cc1cc(Nc2ncc(F)c(NC(C)C)n2)cnc1N1CCN(C)CC1` [Compound 1242], for which the IC50 under setting [1] is < 10 µM. Turning to `CN1CCN(c2ccc(Nc3ncc(F)c(NC4CCC4)n3)cc2CO)CC1` [Compound 1243, N4-Cyclobutyl-5-fluoro-N2-[3-hydroxymethyl-4-(4-methylpiperazino)phenyl]-2,4-pyrimidinediamine Bishydrogen chloride salt], the IC50 under setting [3] is < 10 µM. Turning to `Cc1cc(Nc2ncc(F)c(NC3CC(C)(C)N(C)C(C)(C)C3)n2)cnc1N1CCN(C)CC1` [Compound 1244], the IC50 under setting [1] was > 10 µM.

For `Cc1cc(N2CCN(C)CC2)ncc1Nc1ncc(F)c(NC2CCC2)n1` [Compound 1245], under setting [1], the IC50 was > 10 µM. Regarding `Cc1cc(N2CCN(C)CC2)ncc1Nc1ncc(F)c(NC2CCCC2)n1` [Compound 1246], the IC50 under setting [1] was > 10 µM. Take `Cc1cc(N2CCN(C)CC2)ncc1Nc1ncc(F)c(NC2CCCCC2)n1` [Compound 1247]: the IC50 under setting [1] was < 10 µM. `Cc1cc(N2CCN(C)CC2)ncc1Nc1ncc(F)c(NC(C)C)n1` [Compound 1248]: the IC50 under setting [1] was > 10 µM. The same measure, in the same setting: with `Cc1cc(N2CCN(C)CC2)ncc1Nc1ncc(F)c(NC2CC(C)(C)N(C)C(C)(C)C2)n1` [Compound 1249] the figure was > 10 µM; with `Cc1cc(Nc2ncc(F)c(NC3(CO)CCCC3)n2)ccc1N1CCN(C)CC1` [Compound 1250], < 10 µM. Turning to `Cc1cc(C)cc(Nc2ncc(F)c(Nc3nc(N)n[nH]3)n2)c1` [Compound 1252], the IC50 under setting [2] was > 10 µM. Regarding `COc1ccc(Nc2ncc(F)c(Nc3n[nH]c(N)n3)n2)cc1Cl` [Compound 1253], the IC50 under setting [2] is > 10 µM.

In the case of `Nc1nc(Nc2nc(Nc3ccc(Cl)c(Cl)c3)ncc2F)n[nH]1` [Compound 1254], the IC50 under setting [2] was > 10 µM. As to `Cc1cc(C)cc(Nc2ncc(F)c(NCC3COc4ccccc4O3)n2)c1` (stereo not shown) [Compound 1256, N4-[ (2,3-Dihydro-1,4-benzodioxan-2-yl)methyl]-N2-(3,5-dimethylphenyl)-5-fluoro-2,4-pyrimidinediamine], under setting [3], the IC50 is < 10 µM. As for `CNC(=O)COc1cccc(Nc2ncc(F)c(NCC3COc4ccccc4O3)n2)c1` (stereo not shown) [Compound 1257, N4-[ (2,3-Dihydro-1,4-benzodioxan-2-yl)methyl]-5-fluoro-N2-[3-(N-methylamino)carbonylmethyleneoxyphenyl]-2,4-pyrimidinediamine], the IC50 under setting [4] is < 10 µM. With `COc1cc(Nc2ncc(F)c(NCC3COc4ccccc4O3)n2)cc(OC)c1` (stereo not shown) [Compound 1258, N4-[ (2,3-Dihydro-1,4-benzodioxan-2-yl)methyl]-N2-(3,5-dimethoxyphenyl)-5-fluoro-2,4-pyrimidinediamine], the IC50 under setting [3] was < 10 µM. On to `COc1ccc(Nc2ncc(F)c(NCC3COc4ccccc4O3)n2)cc1Cl` (stereo not shown) [Compound 1259, N2-(3-Chloro-4-methoxyphenyl)-N4-[ (2,3-dihydro-1,4-benzodioxan-2-yl)methyl]-5-fluoro-2,4-pyrimidinediamine], for which the IC50 under setting [3] is < 10 µM. With `Fc1cnc(Nc2ccc3cn[nH]c3c2)nc1NCC1COc2ccccc2O1` (stereo not shown) [Compound 1260, N4-[ (2,3-Dihydro-1,4-benzodioxan-2-yl)methyl]-5-fluoro-N2-(indazol-6-yl)-2,4-pyrimidinediamine], the IC50 under setting [4] is < 10 µM. Regarding `COC(=O)c1ccc(Nc2ncc(F)c(Nc3ccc(Cl)c(Cl)c3)n2)cc1` [Compound 1261], the IC50 under setting [1] is > 10 µM. On to `COC(=O)c1ccc(Nc2ncc(F)c(Nc3ccc4c(c3)NC(=O)[C@H](C)O4)n2)cc1` [Compound 1263], for which the IC50 under setting [2] was < 10 µM. Still for that read-out and setting: the result for `C[C@H]1Oc2ccc(Nc3nc(Nc4ccc(C(N)=O)cc4)ncc3F)cc2NC1=O` [Compound 1265] reads < 10 µM.

For `COC(=O)c1ccc(Nc2ncc(F)c(Nc3ccc4c(c3)NC(=O)[C@@H](C)O4)n2)cc1` [Compound 1266], the IC50 under setting [2] is < 10 µM.

Turning to `C[C@H]1Oc2ccc(Nc3nc(Nc4cccc(CN)c4)ncc3F)cc2NC1=O` [Compound 1280], the IC50 reads like this: under setting [3], < 10 µM; under setting [4], < 10 µM. In the case of `COC(=O)CCNC(=O)c1ccc(Nc2ncc(F)c(Nc3ccc4c(n3)NC(=O)C(C)(C)O4)n2)cc1` [Compound 1312, N4-(2,2-Dimethyl-3-oxo-4H-5-pyrid[1,4]oxazin-6-yl)-5-fluoro-N2-[4-[N-(2-methoxycarbonylethyl)aminocarbonyl]phenyl]-2,4-pyrimidinediamine], the IC50 under setting [1] was < 10 µM. Turning to `COC(=O)c1ccc(Nc2ncc(F)c(Nc3ccc(OC)c(Cl)c3)n2)cc1` [Compound 1322], the IC50 under setting [2] was < 10 µM.

With `CNC(=O)CNC(=O)c1ccc(Nc2ncc(F)c(Nc3ccc(OC)c(Cl)c3)n2)cc1` [Compound 1325], under setting [4], the IC50 is < 10 µM. On to `NC(=O)c1ccc(Nc2nc(Cl)ncc2F)cc1` [Compound 1327], for which the IC50 under setting [2] was > 10 µM. In the case of `NC(=O)c1ccc(Nc2nc(Nc3cccc(O)c3)ncc2F)cc1` [Compound 1334], the IC50 reads like this: under setting [1], < 10 µM; under setting [2], < 10 µM.

For `NC(=O)c1ccc(Nc2nc(Nc3cc(Cl)c(O)c(Cl)c3)ncc2F)cc1` [Compound 1335], the IC50 under setting [1] was < 10 µM and the IC50 under setting [2] is < 10 µM. With `COc1ccc(Nc2ncc(F)c(Nc3ccc(C(N)=O)cc3)n2)cc1Cl` [Compound 1336], the IC50 is, setting by setting: under setting [1], < 10 µM; under setting [2], < 10 µM. Consider `NC(=O)c1ccc(Nc2ncc(F)c(Nc3ccc(C(N)=O)cc3)n2)cc1` [Compound 1339], for which the IC50 is > 10 µM under setting [1] and > 10 µM under setting [2]. Consider `COC(=O)CNC(=O)c1ccc(Nc2ncc(F)c(Nc3ccc(OCc4nc(C)no4)cc3)n2)cc1` [Compound 1342, 5-Fluoro-N2-(4-[N-[methoxycarbonylmethylene]aminocarbonyl]phenyl)-N4-(4-[3-methyl-1,2,4-oxadiazol-5-yl]methyleneoxyphenyl)-2,4-pyrimidinediamine], for which the IC50 was < 10 µM under setting [3] and < 10 µM under setting [4]. Take `CN(c1ccc(Cl)c(Cl)c1)c1nc(Nc2ccc(C(N)=O)cc2)ncc1F` [Compound 1346]: the IC50 under setting [1] is < 10 µM.

With `CCN(CC)CCNC(=O)c1ccc(Nc2ncc(F)c(N(C)c3ccc(Cl)c(Cl)c3)n2)cc1` [Compound 1347, N2-(4-[2-[N,N-Diethylamino]ethyleneaminocarbonyl]phenyl)-N4-(3,4-dichlorophenyl)-5-fluoro-N4-methyl-2,4-pyrimidinediamine], the IC50 under setting [3] is < 10 µM. In the case of `NC(=O)c1ccc(Nc2ncc(F)c(NC3CCCC3)n2)cc1` [Compound 1349], under setting [1], the IC50 was > 10 µM. `CCN(CC)CCNC(=O)c1ccc(Nc2ncc(F)c(NC3CCCC3)n2)cc1` [Compound 1350, N4-(Cyclopentyl)-N2-(4-[2-(N,N-diethylamino]ethyleneaminocarbonyl)phenyl)-5-fluoro-2,4-pyrimidinediamine]: the IC50 was > 10 µM under setting [3] and < 10 µM under setting [4]. As to `COc1cc(Nc2nc(Nc3ccc(C(N)=O)cc3)ncc2F)ccc1Cl` [Compound 1352], the IC50 under setting [1] was < 10 µM. On to `COc1ccc(Nc2nc(Nc3ccc(C(N)=O)c(Cl)c3)ncc2F)cc1Cl` [Compound 1353], for which the IC50 is < 10 µM under setting [1] and < 10 µM under setting [2]. Take `COc1cc(Nc2nc(Nc3ccc(C(N)=O)c(Cl)c3)ncc2F)ccc1Cl` [Compound 1354]: the IC50 by setting is: under setting [1], < 10 µM; under setting [2], < 10 µM. For `CCN(CC)CCNC(=O)c1ccc(Nc2ncc(F)c(Nc3ccc(Cl)c(OC)c3)n2)cc1` [Compound 1355, N4-(4-Chloro-3-methoxyphenyl)-N2-(4-[2-[N,N-diethylamino]ethyleneaminocarbonyl]phenyl)-5-fluoro-2,4-pyrimidinediamine], the IC50 runs as follows: under setting [3], < 10 µM; under setting [4], < 10 µM.

On to `NC(=O)c1ccc(Nc2ncc(F)c(Nc3ccccc3)n2)cc1` [Compound 1357, N2-(4-Aminocarbonylphenyl)-5-fluoro-N4-phenyl-2,4-pyrimidinediamine], for which the IC50 runs as follows: under setting [1], < 10 µM; under setting [2], < 10 µM.
